In patent US7078398B2, “Compositions and methods for treating or preventing convulsions or seizures” (Vela Pharamaceuticals, Inc., priority 2001, dated 2006):
Entries after “also recorded” stand apart in the source; their conditions may differ. Where two headings read alike, the source gives them in different places.

Key:
[1] = test system: picrotoxin-induced seizures in male NSA mice; test: animal or person; assay type: in vivo; conditions: for anti-convulsant activity against picrotoxin-induced seizures (conclusion): NSA mice; for ED50 (95% confidence limit) / ED50: i.p. 15 minutes prior to picrotoxin 5 mg/kg s.c.; for ED50: Mus musculus
Method: Anticonvulsant activity against picrotoxin-induced seizures is considered evidence of clinical antiepileptic potential and reason for further evaluation of a test compound's anticonvulsant profile (Swinyard, E. A. et al., General principles: experimental detection, quantification and evaluation of anticonvulsants. In: Antiepileptic Drugs, D. M. Woodbury et al., eds. Raven Press, New York (1990) pp. 111–126).
Picrotoxin (5 mg/kg, Sigma Chem. Co., St. Louis, Mo., USA) was dissolved in saline and administered subcutaneously to induce seizures. In addition, picrotoxin alone was administered to seven animals as a control. All test drugs were dissolved in dimethylsulfoxide (DMSO).
After picrotoxin injection, mice were placed into a plexiglass cage for 30 minutes of observation. The appearance of seizures was defined as the presence of a single episode of clonic or tonic activity (including myoclonic jerks) during the 30 minute observation period. […] Animals were euthanized immediately after the observation period by CO2 inhalation. The ED50 (the dose of test compound at which half of the animals were protected against picrotoxin-induced seizures) values and their 95% confidence limits were calculated by the method of Litchfield and Wilcoxon (J. Pharmacol. Exp. Ther. 96:99–113 (1949)).

[2] = test system: convulsions induced by tryptamine in mice; conditions: Table 6 of Ito; cited from earlier work
[3] = test system: pentylenetetrazole convulsions in Tuck No. 1 mice; conditions: cited from earlier work
[4] = test system: picrotoxin convulsions in Tuck No. 1 mice; conditions: cited from earlier work
[5] = test system: convulsions induced by the compound Ro 5-4864 in mice; conditions: 100 mg/kg; cited from earlier work
[6] = Example 2, enantiomers of Example 1, 30 minute observation
[7] = Example 4, enantiomers of Example 3

Row | Compound | anti-convulsant activity against picrotoxin-induced seizures (conclusion) ([1]; Example 2) | inhibition of picrotoxin-induced convulsions ([1]; Example 2, at either 20 or 50 mg/kg i.p.) | ED50 (95% confidence limit) [1, 6] | protection against picrotoxin-induced seizures ([1]; Example 4, 90 mg/kg) | protection against picrotoxin-induced seizures ([1]; Example 4, 128 mg/kg) | protection from picrotoxin-induced seizures, all doses tested ([1]; Example 4, 32-128 mg/kg) | anticonvulsant activity ([1]; Example 4, doses of 32 mg/kg and 64 mg/kg) | ED50 (95% confidence limit) [1, 7] | incidence of convulsions [2] | effect as an anti-convulsant ([3]; 10–25 mg/kg, 60 mg/kg of pentylenetetrazole) | effect in combination with 30 mg/kg pentylenetetrazole ([3]; 25–50 mg/kg) | number or severity of convulsions ([4]; 10–50 mg/kg, 6 mg/kg of picrotoxin) | effect in combination with 3 mg/kg picrotoxin ([4]; 25–50 mg/kg) | myoclonic jerks in treated mice [5] | number of mice having convulsions [5] | anti-convulsant activity (conclusion) ([1]; Example 4) | ED50 ([1]; read-out: ED50 (95% confidence limit), Example 2, enantiomers of Example 1, 30 minute observation) | ED50 ([1]; read-out: ED50 (95% confidence limit), Example 4, enantiomers of Example 3) | protection against picrotoxin-induced seizures ([1]; Example 2, 40 mg/kg i.p.) | anti-convulsant activity compared with the racemate ([1]; Example 4, highly pure S-tofisopam)
1 | CC[C@H]1C(C)=NN=C(c2ccc(OC)c(OC)c2)c2cc(OC)c(OC)cc21 [R-tofisopam] | no anti-convulsant activity | did not inhibit | Inactive | no further increase in protection | no protection | < 50% | exhibits anticonvulsant activity | could not be calculated; also recorded: not calculable | – | – | – | – | – | – | – | – | – | – | – | –
2 | CCC1C(C)=NN=C(c2ccc(OC)c(OC)c2)c2cc(OC)c(OC)cc21 (racemic) [tofisopam, 1-(3,4-dimethoxy-phenyl)-4-methyl-5-ethyl-7,8-dimethoxy-5H-2,3-benzodiazepine] | intrinsic anti-convulsant activity | – | – | – | – | – | – | – | no effect | no effect | proconvulsant activity | no affect | proconvulsant activity | all of the treated mice still experienced myoclonic jerks | reduced the number of mice having convulsions | intrinsic anti-convulsant activity | 37.8 mg/kg | 51.4 mg/kg | – | –
3 | CC[C@@H]1C(C)=NN=C(c2ccc(OC)c(OC)c2)c2cc(OC)c(OC)cc21 [S-tofisopam] | intrinsic anti-convulsant activity | – | ~35 (28–43) mg/kg | – | – | – | – | 15.1 (7.6–30.1) mg/kg | – | – | – | – | – | – | – | intrinsic anti-convulsant activity | – | – | over 60% | significantly greater anti-convulsant activity
